In patent publication US8513232B2, “Substituted spirocyclic piperidine derivatives as histamine-3 (H3) receptor ligands” (Cephalon, Inc., priority 2008, dated 2013):
Where two headings read alike, the source gives them in different places.

Key:
human H3 receptor = biological target: T1, human H3 receptor (Homo sapiens, UniProt Q9Y5N1); test: Human H3 radioligand binding ([3H]-N-alpha-methylhistamine, SPA)
T1 construct: expressed in transfected cells
Summary of the method: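 Compounds (0.01 nM-30 μM) competed with approximately 1 nM [3H]-N-alpha-methylhistamine for human H3 receptor in membranes of stably transfected CHO cells, 10 μg protein per well, in Tris-HCl pH 7.4/MgCl2/BSA buffer for 4 h at room temperature. Bound radioligand measured by scintillation proximity; 10 μM clobenpropit gave non-specific binding.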

[1] = biological target: T2, rat histamine H3 receptor (Rattus norvegicus, UniProt Q9QYN8); test: Rat H3 radioligand binding ([3H]-N-alpha-methylhistamine, SPA)
T2 construct: encoding the entire 445-amino-acid rat histamine H3 receptor; expressed in transfected cells; membrane preparation
Summary of the method: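 SPA-bead binding assay using [3H]-N-alpha-methylhistamine (approximately 1 nM final) with test compounds from 0.01 nM to 30 μM. Rat H3 receptor membranes came from stably transfected CHO-A3 cells; incubation ran 4 h at room temperature, in the dark, in Tris pH 7.4 buffer with MgCl2 and BSA. Clobenpropit (10 μM) gave non-specific binding.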

[2] = Human H3 binding, Table B, Examples 136-362, read-out: hum H3 binding Ki
[3] = Rat H3 binding, Table B, Examples 136-362, read-out: rat H3 binding Ki
[4] = Table A, human H3 binding, read-out: Human Ki
[5] = Table A, rat H3 binding, read-out: Rat Ki
[6] = human H3 binding, Table D, read-out: Human H3 Ki
[7] = rat H3 binding, Table D, read-out: Rat H3 Ki

T1 sequence (Q9Y5N1 whole entry): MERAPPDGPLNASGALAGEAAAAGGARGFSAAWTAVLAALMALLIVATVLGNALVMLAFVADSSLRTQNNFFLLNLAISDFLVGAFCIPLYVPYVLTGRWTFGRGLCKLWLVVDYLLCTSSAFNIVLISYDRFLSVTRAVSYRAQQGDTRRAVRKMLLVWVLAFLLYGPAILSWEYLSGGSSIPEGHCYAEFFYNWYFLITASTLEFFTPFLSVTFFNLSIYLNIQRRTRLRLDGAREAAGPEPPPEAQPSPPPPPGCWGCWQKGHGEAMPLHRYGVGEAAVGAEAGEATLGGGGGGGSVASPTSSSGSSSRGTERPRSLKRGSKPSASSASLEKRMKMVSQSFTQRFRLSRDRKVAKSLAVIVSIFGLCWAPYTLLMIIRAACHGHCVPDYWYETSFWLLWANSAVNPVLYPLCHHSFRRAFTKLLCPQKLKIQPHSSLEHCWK
T2 sequence (Q9QYN8 whole entry): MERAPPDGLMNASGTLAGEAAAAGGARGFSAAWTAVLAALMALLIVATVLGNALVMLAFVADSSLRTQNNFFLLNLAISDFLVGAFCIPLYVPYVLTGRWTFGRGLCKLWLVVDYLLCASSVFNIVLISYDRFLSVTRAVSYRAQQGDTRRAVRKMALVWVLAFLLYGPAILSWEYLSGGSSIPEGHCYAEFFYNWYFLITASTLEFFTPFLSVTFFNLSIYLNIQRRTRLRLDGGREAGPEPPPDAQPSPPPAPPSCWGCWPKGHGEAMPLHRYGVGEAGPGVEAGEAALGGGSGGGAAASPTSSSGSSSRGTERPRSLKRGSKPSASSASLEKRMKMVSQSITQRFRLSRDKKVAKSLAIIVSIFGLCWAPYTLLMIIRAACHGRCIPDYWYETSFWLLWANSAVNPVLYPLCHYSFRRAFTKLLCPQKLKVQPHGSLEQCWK

| Structure (SMILES) | Ki (human H3 receptor; [2]) [nM] | Ki [1, 3] [nM] | melting point [°C] | other results |
| --- | --- | --- | --- | --- |
| O=C(Nc1ccc2c(c1)COC1(CCN(C3CCC3)CC1)O2)c1ccnc(N2CCCC2)c1 [Example 309] | < 200 | < 200 | 234 to 236 | – |
| O=C1N(c2ccncc2)CCN1c1ccc2c(c1)CCC1(CCN(C3CCC3)CC1)O2 [Example 210] | < 200 | < 200 | 208 to 210 | – |
| c1nc(-c2ccc3c(c2)COC2(CCN(C4CCC4)CC2)O3)cs1 [Example 66] | – | – | 165 to 166 | Ki (human H3 receptor; [4]): < 200 nM; Ki [1, 5]: < 200 nM |
| O=C(NCCO)c1c(F)cc(-c2ccc3c(c2)CCC2(CCN(C4CCC4)CC2)O3)cc1F [Example 260] | < 200 | < 200 | 76.3 to 78.2 | – |
| Cc1cc(C(=O)Nc2ccc3c(c2)COC2(CCN(C4CCC4)CC2)O3)cc(Cl)n1 [Example 196] | < 200 | < 200 | 179 to 180 | – |
| O=c1oc2ccccc2n1-c1ccc2c(n1)COC1(CCN(C3CCC3)CC1)O2 [Example 161] | < 200 | 200 to 1000 | 67 to 70 | – |
| CNC(=O)c1ccc(Nc2ccc3c(c2)COC2(CCN(C4CCC4)CC2)O3)nc1 [Example 130] | – | – | 211 to 213 | Ki (human H3 receptor; [4]): < 200 nM; Ki [1, 5]: < 200 nM |
| O=C(NCCO)c1ccc(-c2ccc3c(c2)CCC2(CCN(C4CCC4)CC2)O3)cc1F [Example 147] | < 200 | < 200 | 215 to 217 | – |
| CNC(=O)c1ccc(-c2ccc3c(c2)CCOC2(CCN(C4CCC4)CC2)O3)cc1 [Example 180] | 200 to 1000 | > 1000 | 155.6 to 157.3 | – |
| c1ccc(COc2ccc3c(c2)CCC2(CCN(C4CCC4)CC2)O3)cc1 [Example 189] | < 200 | < 200 | 102 to 103 | – |

The next lines start with results.

| Ki (human H3 receptor; [2]) [nM] | Ki [1, 3] [nM] | melting point [°C] | Structure (SMILES) | other results |
| --- | --- | --- | --- | --- |
| – | – | 157 to 159 | OC1(c2ccc3c(c2)COC2(CCN(C4CCC4)CC2)O3)CCOCC1 [Example 477] | Ki (human H3 receptor; read-out: Human H3 Ki): < 200 nM; Ki ([1]; read-out: Rat H3 kI): < 200 nM |
| – | – | 199 to 201 | COC1(c2ccc3c(c2)COC2(CCN(C4CCC4)CC2)O3)CCS(=O)(=O)CC1 [Example 542] | Ki (human H3 receptor; read-out: Human H3 Ki): < 200 nM; Ki ([1]; read-out: Rat H3 kI): < 200 nM |
| < 200 | < 200 | 213 to 215 | CN(C)c1cc(C(=O)Nc2ccc3c(c2)COC2(CCN(C4CCC4)CC2)O3)ccn1 [Example 314] | – |
| – | – | 146 to 148 | CCC(=O)N1CCN(c2ccc3c(c2)COC2(CCN(C4CCC4)CC2)O3)C(=O)C1 [Example 739] | Ki (human H3 receptor; [6]): < 200 nM; Ki [1, 7]: < 200 nM |
| < 200 | < 200 | 131 to 132 | CC(C)NC(=O)c1ccc(-c2ccc3c(c2)CCC2(CCN(C4CCC4)CC2)O3)cc1F [Example 355] | – |
| < 200 | < 200 | 208.4 to 210.6 | CC(C)C(=O)NC1CCN(c2ccc3c(c2)COC2(CCN(C4CCC4)CC2)O3)CC1 [Example 324] | – |
| – | – | 170 to 172 | CCc1nnc(COc2ccc3c(c2)CCC2(CCN(C4CCC4)CC2)O3)o1 [Example 678] | Ki (human H3 receptor; [6]): < 200 nM; Ki [1, 7]: < 200 nM |
| – | – | 282 to 284 | O=C(C1CCN(c2ccc3c(c2)COC2(CCN(C4CCC4)CC2)O3)CC1)N1CCOCC1 [Example 468] | Ki (human H3 receptor; read-out: Human H3 Ki): < 200 nM; Ki ([1]; read-out: Rat H3 kI): < 200 nM |
| < 200 | < 200 | 70.2 to 72.2 | O[C@@H]1CCN(c2ccc3c(c2)COC2(CCN(C4CCC4)CC2)O3)C1 [Example 347] | – |
| – | – | 69 to 72 | OC(c1ccncc1)c1ccc2c(c1)COC1(CCN(C3CCC3)CC1)O2 (stereo not drawn) [Example 683] | Ki (human H3 receptor; [6]): < 200 nM; Ki [1, 7]: < 200 nM |
| < 200 | < 200 | 135 to 137 | CC(C)OCCNC(=O)c1ccc(-c2ccc3c(c2)CCC2(CCN(C4CCC4)CC2)O3)cc1 [Example 312] | – |
| – | – | 198 to 201 | CS(=O)(=O)c1ccc(-c2ccc3c(c2)COC2(CCN(C4CCC4)CC2)O3)cc1Cl [Example 622] | Ki (human H3 receptor; [6]): < 200 nM; Ki [1, 7]: < 200 nM |
